# Patent publication US7910622B2, “Modulation of bacterial quorum sensing with synthetic ligands” (Wisconsin Alumni Research Foundation, priority 2007, dated 2011)
# Legend:
# Experiment in all cases: cell-based
# [1] = target: T1, TraR (Agrobacterium tumefaciens, UniProt P33905); settings: for A. tumefaciens-TraR Activation [%]: 10 μM ligand; for A. tumefaciens-TraR Activation [%] / A. tumefaciens-TraR Inhibition [%]: A. tumefaciens WCF47 (pCF372), normalized to OOHL; for A. tumefaciens-TraR Inhibition [%]: 10 μM synthetic ligand against 100 nM OOHL
# T1 construct: These strains lack their AHL synthase (I) genes, but retain their native R genes; endogenous in cells; host or cells: A. tumefaciens WCF47 (Δ-traI) with PtraI-lacZ plasmid pCF372
# T1 sequence (P33905 whole entry): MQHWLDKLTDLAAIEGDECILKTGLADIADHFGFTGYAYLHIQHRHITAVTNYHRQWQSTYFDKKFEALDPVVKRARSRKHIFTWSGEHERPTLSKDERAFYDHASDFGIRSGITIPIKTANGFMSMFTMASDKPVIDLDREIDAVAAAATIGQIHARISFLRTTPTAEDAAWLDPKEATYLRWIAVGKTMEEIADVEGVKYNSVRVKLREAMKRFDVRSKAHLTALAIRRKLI
# Protocol: A. tumefaciens reporter gene assay protocols. […] An overnight culture of A. tumefaciens WCF47 (pCF372) was diluted to an OD600 of 0.1 in fresh AB minimal medium containing 400 μg/mL octopine and 50 μg/mL streptomycin. A 200 μL-portion of the diluted culture was added to each well of the multititer plate containing AHLs. Plates were grown at 28° C. for 18-20 h in a rotary shaking incubator (200 rpm). The cultures were then assayed for β-galactosidase activity following the Miller assay method. Briefly, 200 μL aliquots of bacteria from each of the wells were added to wells of a polystyrene 96-well plate and the OD600 of each well was recorded. Next, 50 μL aliquots from each well were transferred to a solvent resistant 96-well plate containing 200 μL Z buffer, 8 μL CHCl3 and 4 μL 0.1% aq. sodium dodecylsulfate (SDS). This suspension was mixed via repetitive pipetting, after which the CHCl3 was allowed to settle. A 100-μL aliquot from each well was transferred to a fresh polystyrene 96-well plate, and 20 μL of substrate, o-nitrophenyl-β-D-galactopyranoside (ONPG, 4 μg/mL in phosphate buffer), was added at time zero. After the development of appropriate yellow color (ca. 15-35 min), the reaction was terminated by the addition of 50 μL of 1 M Na2CO3. Absorbance at 420 nm and 550 nm was measured for each well using a plate reader, and Miller units were calculated according to standard methods.
# (§1) Dose response reporter gene assays. […] IC50 and EC50 values were calculated using GraphPad Prism software (v. 4.0) using a sigmoidal curve fit.
# A. tumefaciens reporter gene assay protocols. […] An overnight culture of A. tumefaciens WCF47 (pCF372) was diluted 1:10 with fresh AB minimal medium containing 400 μg/mL octopine and 50 μg/mL streptomycin. A 200 μL portion of the diluted culture was added to each well of the multititer plate containing AHLs. Plates were incubated at 28° C. for 18-24 h. The cultures were then assayed for β-galactosidase activity following the Miller assay method. Briefly, 200 μL aliquots of bacteria from each of the wells were added to wells of a 96-well multititer plate, and the OD600 of each well was recorded. Next, 50 μL aliquots from each well were transferred to a solvent resistant 96-well multititer plate containing 200 μL Z buffer, 8 μL CHCl3 and 4 μL 0.1% aq. SDS. This suspension was mixed via repetitive pipetting, after which the CHCl3 was allowed to settle. A 100 μL aliquot from each well was transferred to a fresh 96-well multititer plate, and 20 μL of substrate, o-nitrophenyl-β-D-galactopyranoside (ONPG, 4 μg/mL in phosphate buffer), was added at time zero. After the development of appropriate yellow color (ca. 20-30 min), the reaction was terminated by the addition of 50 μL of 1 M Na2CO3. Absorbances at 420 nm and 550 nm were measured for each well using a plate reader, and Miller units were calculated according to standard methods.
# as §1
# [2] = target: T2, LasR (Pseudomonas aeruginosa, UniProt P25084); format: cell-based; settings: for E. coli-LasR Inhibition [%]: 5 μM synthetic ligand against 7.5 nM OdDHL
# T2 construct: expressed in transfected cells; host or cells: E. coli DH5α (pJN105L pSC11), arabinose-induced
# T2 sequence (P25084 whole entry): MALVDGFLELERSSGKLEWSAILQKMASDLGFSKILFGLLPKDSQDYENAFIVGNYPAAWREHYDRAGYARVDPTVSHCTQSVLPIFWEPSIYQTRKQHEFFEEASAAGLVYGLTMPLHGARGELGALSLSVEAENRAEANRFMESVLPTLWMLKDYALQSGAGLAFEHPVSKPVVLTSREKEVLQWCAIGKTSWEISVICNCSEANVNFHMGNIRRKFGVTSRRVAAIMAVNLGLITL
# Protocol: (§2) E. coli LasR reporter gene assay protocols. […] An overnight culture of E. coli DH5a (pJN105L pSC11) grown at 37° C. was subculture by diluting 1/10 in fresh LB medium containing 100 μg/mL ampicillin and 15 μg/mL gentamicin and shaking at 37° C. until OD600=0.3. Arabinose (4 mg/mL) was then added to induce the LasR promoter and a 200 μL-portion of this culture was added to each well of the multititer plate containing AHLs. Plates were grown at 37° C. for 2 hours in a rotary shaking incubator (200 rpm; OD600=0.45). The cultures were then assayed for activity following the identical β-galactosidase assay protocols used in the A. tumefaciens reporter gene assays.
# as §1
# (§3) E. coli LasR reporter gene assay protocols. […] An overnight culture of E. coli DH5α (pJN105L pSC11) was diluted 1:10 with fresh LB medium containing 100 μg/mL ampicillin and 15 μg/mL gentamicin. This sub-culture was incubated at 37° C. until OD600=0.3 (4-6 h). Arabinose (4 mg/mL) was then added to induce the LasR promoter, and a 200 μL portion of this culture was added to each well of the multititer plate containing AHLs. Plates were incubated at 37° C. until OD600=0.45 (4-6 h). The cultures were then assayed for LasR activity following the identical β-galactosidase assay protocols used in the A. tumefaciens reporter gene assays (see above).
# as §1
# [3] = target: T2, LasR; settings: for E. coli-LasR Activation [%]: 5 μM ligand, E. coli DH5α (pJN105L pSC11), normalized to OdDHL
# Protocol: as §2, §1, §3, §1
# [4] = target: T3, LuxR (Aliivibrio fischeri, UniProt P35327); format: cell-based, Vibrio fischeri; settings: for V. fischeri-LuxR Inhibition [%]: 5 μM synthetic ligand against 5 μM OHHL
# T3 construct: a Δ-luxI derivative of V. fischeri ES114, in which the native lux operon behaves as the bioluminescent reporter; endogenous in cells; host or cells: V. fischeri ES114 (Δ-luxI)
# T3 sequence (P35327 whole entry): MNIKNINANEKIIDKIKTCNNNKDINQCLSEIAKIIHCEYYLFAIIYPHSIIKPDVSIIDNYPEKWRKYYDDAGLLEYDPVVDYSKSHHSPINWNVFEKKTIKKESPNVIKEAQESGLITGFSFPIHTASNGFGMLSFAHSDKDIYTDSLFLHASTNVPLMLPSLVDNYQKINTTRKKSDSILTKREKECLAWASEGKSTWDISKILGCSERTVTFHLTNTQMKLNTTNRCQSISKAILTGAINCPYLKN
# Protocol: (§4) Luminescence assays. For agonism assays, an appropriate amount of AHL stock solution was added into a 96-well plate. An overnight culture of E. coli or V. fischeri was diluted 1:10 with appropriate media (LB plus 10 μg/mL tetracycline for E. coli; LBS for V. fischeri). A 200-μL portion of the diluted culture was added to each well of the plate. Plates were grown for 4-8 h with shaking (200 rpm; 30° C. for E. coli and RT for V. fischeri). Luminescence was measured using a multilabel plate reader and normalized to cell density. […] All assays were performed in triplicate. Graphpad Prism software was used to calculate IC50 and EC50 values.
# (§5) Vibrio fischeri assay procedures. […] An overnight culture of V. fischeri ES114 (WT, Δ-luxI or Δ-luxR) was diluted 1:10 with LBS medium. A-200 μL portion of the diluted culture was added to each well of the plate. Plates were grown at RT with shaking (200 rpm) until the OD600=0.35-0.4 (4-6 h). Luminescence then was measured and normalized to cell density per well. […] All assays were performed in triplicate. IC50 and EC50 values were calculated using GraphPad Prism software using a sigmoidal curve fit.
# (§6) V. fischeri reporter gene assay protocols. […] An overnight culture of V. fischeri ES114 (D-luxI) was diluted 1:10 with LBS medium. A 200-μL portion of the diluted culture was added to each well of the multititer plate. Plates were grown at RT with shaking (200 rpm) until the OD600=0.35-0.4 (4-6 h). Luminescence then was measured and normalized to cell density per well.
# as §1
# as §6, with “(Δ-luxI)” for “(D-luxI)”, “A200 μL” for “A 200-μL”, “incubated” for “grown”, “RT” for “RT with shaking (200 rpm)”
# as §1
# [5] = target: T3, LuxR; set-up: species or system Vibrio fischeri; settings: for V. fischeri-LuxR Activation [%]: 200 μM ligand
# Protocol: as §4, §5, §6, §1
# as §6, with “(Δ-luxI)” for “(D-luxI)”, “A200 μL” for “A 200-μL”, “incubated” for “grown”, “RT” for “RT with shaking (200 rpm)”
# as §1
# [6] = E. coli DH5α (pJN105L pSC11), normalized to OdDHL
# [7] = V. fischeri ES114 (Δ-luxI), normalized to OHHL
compound,measurement,setting,value
4-methyl PHL [B24],A. tumefaciens-TraR Activation [%],[1],3%
same,A. tumefaciens-TraR Inhibition [%],[1],21%
same,E. coli-LasR Inhibition [%],[2]; [6],11%
same,E. coli-LasR Activation [%],[3],0%
same,V. fischeri-LuxR Inhibition [%],[4]; [7],58%
same,V. fischeri-LuxR Activation [%],[5]; [7],1%
CCCCCCCCCCCS(=O)(=O)N[C@H]1CCOC1=O [A16],A. tumefaciens-TraR Activation [%],[1],0%
same,A. tumefaciens-TraR Inhibition [%],[1],29%
same,E. coli-LasR Inhibition [%],[2]; [6],21%
same,E. coli-LasR Activation [%],[3],0%
same,V. fischeri-LuxR Inhibition [%],[4]; [7],74%
same,V. fischeri-LuxR Activation [%],[5]; [7],1%
O=C(Cc1ccccc1[N+](=O)[O-])N[C@H]1CCOC1=O [B18],A. tumefaciens-TraR Activation [%],[1],0%
same,A. tumefaciens-TraR Inhibition [%],[1],1%
same,E. coli-LasR Inhibition [%],[2]; [6],17%
same,E. coli-LasR Activation [%],[3],0%
same,V. fischeri-LuxR Inhibition [%],[4]; [7],23%
same,V. fischeri-LuxR Activation [%],[5]; [7],4%
4-methyl PHL [C19],Activation (%),"[1]; A. tumefaciens-TraR, Library C primary agonism screen",3%
same,Inhibition (%),"[1]; A. tumefaciens-TraR, Library C primary antagonism screen",21%
same,Inhibition (%),"[2]; E. coli-LasR, Library C primary antagonism screen",11%
same,Activation (%),"[3]; E. coli-LasR, Library C primary agonism screen",0%
same,Inhibition (%),"[4]; V. fischeri-LuxR, Library C primary antagonism screen",58%
same,Activation (%),"[5]; V. fischeri-LuxR, Library C primary agonism screen",1%
"CCCCCC(=O)CC(=O)N[C@H]1CCOC1=O [compound 1, N-(3-oxo-octanoyl)-L-homoserine lactone, reference compound]",EC50,"[1]; EC50 of autoinducer in A. tumefaciens WCF47 (pCF372), value in method text",100 nM
same,EC50,[1]; TraR EC50,200 nM
same,activation at 10 µM,[1]; read-out: A. tumefaciens-TraR Activation [%],100%
same,E. coli-LasR Inhibition [%],[2]; [6],50%
same,IC50,"[2]; determined against 7.5 nM OdDHL, read-out: LasR IC50",110 nM
same,inhibition at 5 µM,"[2]; read-out: E. coli-LasR Inhibition [%], 5 μM synthetic ligand against 7.5 nM OdDHL, E. coli DH5α (pJN105L pSC11), normalized to OdDHL",≥ 50%
same,inhibition at 5 µM,"[4]; read-out: V. fischeri-LuxR Inhibition [%], 5 μM synthetic ligand against 5 μM OHHL, V. fischeri ES114 (Δ-luxI), normalized to OHHL",63%
same,activation at 200 µM,"[5]; read-out: V. fischeri-LuxR Activation [%], 200 μM ligand, V. fischeri ES114 (Δ-luxI), normalized to OHHL",~25%
4-azido PHL [B20],A. tumefaciens-TraR Activation [%],[1],0%
same,E. coli-LasR Inhibition [%],[2]; [6],19%
same,E. coli-LasR Activation [%],[3],0%
same,V. fischeri-LuxR Activation [%],[5]; [7],5%
O=C(CC(=O)N[C@@H]1CCOC1=O)Cc1ccccc1 [A25],A. tumefaciens-TraR Activation [%],[1],2%
same,A. tumefaciens-TraR Inhibition [%],[1],50%
same,E. coli-LasR Inhibition [%],[2]; [6],−7%
same,E. coli-LasR Activation [%],[3],84%
same,EC50,[3]; read-out: LasR EC50,540 nM
same,V. fischeri-LuxR Activation [%],[5]; [7],3%
